Measurements published in the supplement of paper PMC10949913.

Key:
Assay in all cases: area under concentration-response curve (viability) (AUC (a.u.)); higher = less active
Details in all cases: 48 h
[1] = test system: CU-ACC1
Outline: (§1)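 Three adrenocortical carcinoma cell lines were seeded at 500–1,000 cells/well in 5 µL medium in 1,536-well plates. 23 nL of each MIPE 5.0 library compound was added at 11 concentrations. After 48 h (per the protocol name), CellTiter-Glo was added for 15 minutes at room temperature and luminescence was read. Signals were normalised per plate to vehicle and empty-well controls. AC50 and area under the curve came from fitted concentration-response curves, keeping only inhibitory or non-responding curve classes.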

[2] = test system: CU-ACC2
Outline: as §1

[3] = test system: NCI-H295R
Outline: as §1

Row | SMILES | area under concentration-response curve [1] | area under concentration-response curve [2] | area under concentration-response curve [3]
1 | CO[C@@H]1[C@@H](OC(N)=O)[C@@H](O)[C@H](OC2=CC=C3\C(=C(NC(=O)C4=CC=C([O-])C(=C4)CC=C(C)C)/C(=O)OC3=C2C)O)OC1(C)C | 535 | 531 | 539
2 | O=C(O)C(=O)c1cn(Cc2ccccc2)c2ccc(-c3ccc(OC(F)(F)F)cc3)cc12 | 474 | 489 | 489
3 | CC(=O)OCCN1C(=O)c2c(C)nc3ccc([S+](=O)([O-])N4CCOCC4)cc3c2C1=O | 547 | 653 | 581
4 | OC(c1ccc(-c2ccc(CN3CCN(Cc4ccncc4)CC3)cc2)c(F)c1)(C(F)(F)F)C(F)(F)F | 584 | 638 | 581
5 | CN(C)c1ccc(-c2nc3c(N4CCN(CC(=O)Nc5nccs5)CC4)c(Cl)cnc3[nH]2)cc1 | 618 | 658 | 600
6 | C[C@@H]1C[C@H]2[C@@H]3CCC\4=C\C(=O)\C=C/[C@]4(C)[C@@]3(F)[C@@H](O)C[C@]2(C)[C@@]1(O)C(=O)CO | 515 | 588 | 481
7 | Nc1ncc(C(=O)NC2CN(C(=O)C3CC3)C2)c2ccc(-c3cccc(F)c3)nc12 | 538 | 647 | 574
8 | N/C(=N\OCC(O)CN1CCCCC1)c1cccnc1 (stereo not given) | 415 | 447 | 455
9 | Cc1ccc(CN2CCNCC2)cc1NC(=O)CNc1ccc(F)c(F)c1 | 531 | 635 | 596
10 | S=C1N\C=N/C2=C1[NH]C=N2 | 438 | 518 | 495
11 | C[N+](C)(C)CC(=O)O | 501 | 611 | 560
12 | CNC(=O)CN1CCC(Oc2cc3c(Nc4cccc(Cl)c4F)ncnc3cc2OC)CC1 | 501 | 572 | 570
13 | C[C@H]1C[C@H]2[C@@H]3CC\C4=C\C(=O)\C=C/[C@]4(C)[C@H]3C(=O)C[C@]2(C)[C@@]1(O)C(=O)CO | 511 | 618 | 488
14 | Cc1ncc([N+](=O)[O-])n1CC(C)O (stereo not given) | 554 | 644 | 566
15 | COc1cc(NC(=O)c2ccc(-c3ccc(Cl)cc3)o2)cc(OC)c1 | 469 | 562 | 536
16 | O=C(Nc1nccs1)C(c1cc(F)ccc1O)N1Cc2ccccc2C1=O (stereo not given) | 504 | 557 | 524
17 | O=S(=O)([O-])CCS | 539 | 518 | 551
18 | CC(C)C[C@H](NC(=O)[C@H](Cc1ccccc1)NC(=O)OCc1ccccc1)C(=O)C=O | 456 | 531 | 504
19 | CCN1\C=C(C(O)=O)/C(=O)C2=C1C(=C(N3CCNC(C)C3)C(=C2)F)F (stereo not given) | 577 | 674 | 605
20 | O=C1NC(=O)/C(=C/c2cccc(C(F)(F)F)c2)S1 | 463 | 511 | 449

Row | SMILES | area under concentration-response curve [1] | area under concentration-response curve [2] | area under concentration-response curve [3]
21 | CC(C)C[C@H](CC(=O)O)C(=O)N[C@@H](Cc1c[nH]c2ccccc12)C(=O)N[C@@H](C)c1ccccc1 | 433 | 622 | 577
22 | COC1=CC=C(C=C1)/C2=C(O)/C(=O)C3=C(O)C=C(O)C(=C3O2)CC=C(C)C | 415 | 388 | 416
23 | CC(C)Oc1ccc(-c2nc(-c3cccc4c3CC[C@@H]4NCCO)no2)cc1C#N | 370 | 502 | 481
24 | CN1C(=O)[C@@H](NC(=O)[C@H](CCC(F)(F)F)[C@H](CCC(F)(F)F)C(N)=O)\N=C(C2=CC=CC=C2)/C3=CC=CC=C13 | 514 | 610 | 530
25 | CN1C(=O)C(Cc2c[nH]c3ccccc23)NC1=S (stereo not given) | 543 | 639 | 568
26 | N[S+](=O)([O-])c1cc(Cl)c(Cl)c([S+](N)(=O)[O-])c1 | 459 | 528 | 524
27 | C[C@]12CC(=O)[C@H]3[C@@H](CC\C4=C\C(=O)\C=C/[C@]34C)[C@@H]1CC[C@]2(O)C(=O)CO | 547 | 652 | 580
28 | OC1=CC=C(C=C1)\C2=C(O)\C(=O)C3=C(O2)C=C(O)C=C3O | 481 | 451 | 484
29 | C[C@]12COC(=O)C[C@@H]1CC[C@@H]1[C@@H]2CC[C@@]2(C)[C@H]1CC[C@]2(C)O | 448 | 482 | 447
30 | O=C([O-])C(O)Cc1ccc(O)c(O)c1 (stereo not given) | 460 | 589 | 553
31 | Cc1n[nH]c(C)c1Cc1sc2c(c1C(=O)N1C[C@H](O)CO1)c(=O)n(C)c(=O)n2CC(C)C | 379 | 597 | 554
32 | O=C(NCC(=O)N1CCCC1)Nc1ccc2cnccc2c1 | 565 | 633 | 569
33 | O=C(C[C@@H]1C/C=C\CCC(=O)O[C@H](c2ccccc2)CNC1=O)NCc1ccc(Cl)cc1 | 526 | 620 | 569
34 | OC[C@H]1O[C@H]([C@H](O)[C@@H]1O)N2\C=C/C(=O)NC2=O | 485 | 535 | 502
35 | CN(C)C(=O)COC(=O)Cc1ccc(OC(=O)c2ccc(NC(=N)N)cc2)cc1 | 464 | 564 | 541
36 | C[C@H](CCC(=O)O)[C@H]1CCC2C3C[C@H](O)[C@@H]4C[C@H](O)CC[C@]4(C)C3CC[C@@]21C (stereo not given in full) | 454 | 501 | 470
37 | CC1CCN(c2cc(N3CCN(C)CC3)ccc2NC(=O)c2cc(C#N)c[nH]2)CC1 | 542 | 600 | 544
38 | N[S+]([O-])(=O)C1=C(Cl)C=C2\N=C/N[S+]([O-])(=O)C2=C1 | 548 | 646 | 576
39 | CC(C(=O)O)c1ccc2c(c1)CC(=O)c1ccccc1S2 (stereo not given) | 535 | 554 | 497
40 | COc1ccccc1N1CCN(CC(O)COc2cccc3ccccc23)CC1 (stereo not given) | 458 | 515 | 501
